# Assay: Solubility of lysine HCl in water with temperature
# Format: physicochemical
# Details: room temperature (20-25° C.), monohydrochloride
# Experimental: The solubilities of lysine were essentially the same with and without the maleic acid added to the water. For example, samples of lysine HCl were added to water in sealed, glass bottles, shaken, and placed in the forced-air oven at various temperatures. These were manually shaken periodically over the next few hours, then left to dissolve overnight. […] At 70° C., the lysine completely dissolved to 60%; at 80° C. to 62%; at 90° C. to 64%; at 100° C. to 66% lysine by weight in water. […] Representative samples of these materials were dried and polymerized at 220° C., 5 to 7 hours, under nitrogen.
structure (smiles),measurement,setting,value
"Cl.NCCCC[C@H](N)C(=O)O [lysine HCl, L-lysine monohydrochloride]",solubility in water,listed as lysine,50 % by weight
same,solubility in water,,about 50 % by weight

# — patent US9758395B2, “Lysine-based polymer coagulants for use in clarification of process waters” (priority 2011, dated 2017)
